Assay results as given in patent EP0126043A1, “Carbohydrate derivatives and compositions thereof for therapeutic or diagnostic use” (priority 1983, dated 1984).
Converted amounts (≈) assume the structure as drawn.

Key:
[1] = test system: S. pneumoniae; test: Inhibition of adherence of pneumococci to human pharyngeal epithelium cells (bacteria preincubated with free receptor); format: cell-based; conditions: for activity at 1000 µg/mL / activity at 5000 µg/mL / activity at 10000 µg/mL / activity at 100 µg/mL: read-out: Adherence % of control Average; for inhibition of adherence (result in words): pretreatment of the pneumococci with the substance; for Inhibition of adherence % of control Average: Conc. 200 µg/ml, bacteria preincubated with the glycoconjugate before adding epithelium cells, adhesion in percent of saline control; for IC50: read-out: concentration for 50% inhibition of adherence
Experimental: (§1) Two strains of S. Pneumoniae, EF3114 and EF 10276 (both of the capsular type 6A isolated from the nasopharynx of patients having inflammation in the middle ear) were maintained in a lyophilized state. For adherence test the lyophiles were transferred to blood agar plates and cultivated over night, were then allowed to grow for18 hours in a synthetic medium (Ref. 1) supplemented with 2 g/l ascorbic acid and such as described in (Ref. 2). The bacteria were harvested by centrifugation and suspended in saline solution (Ref. 3).
(§2) Binding to humane nasopharyngeal epithelium cells was investigated in vitro as previously described (Ref. 3). Bacterial cells (10^9/ml) and pharyngeal epithelium cells from a healthy donor (10^4/ml) were mixed, centrifugated at 1500xg for 10 minutes and incubated at 37°C for 30 minutes. After washing twice in 2.5 ml salines for separating epithelium cells from non-adhering bacteria the number of bacteria adhering at 40 epithelium cells were counted and the average number per cell was determined.
For inhibition of adhesion the bacterium concentration giving an average adhesion value of 20-300 bacteria per cell was determined. This inoculate was then preincubated with dilutions of the solutions of potential receptor activity for 15 minutes at 37°C.
Epithelium cells were added and adhesion testing was carried out as described. The adhesion was given in percent of the saline as a control sample.

[2] = test system: S. pneumoniae; test: Induction/increase of pneumococcal adherence by coating epithelium cells with glycoconjugate; format: cell-based; conditions: for Increase of adherence % of control Average: Conc. 200 µg/ml, epithelium cells preincubated with glycoconjugate, washed and used for adherence testing; for effect of coating of pharyngeal epithelium cells on adherence (result in words): coating with 200 µg/ml
Experimental: as §1
as §2, with “healthy male” for “healthy”
Association of receptor active glycolipids with epithelium cells or erythrocytes can increase binding to epithelium cells already containing the receptor or induce binding of cells which have not previously contained receptor. Rabbit erythrocytes (100 ul of a 5 % suspension) were mixed with a neolactotetraosyl ceramide, sialylneolactotetra- osyleeramide or globotetraosylceramide (500 ul of . suspensions of 200 ug/ml) and incubated at 37° for 3 hours with rotation (Ref. 16). After elimination of unbound glycolipid by repeated washing the erythrocyte concentration was again adjusted to 5 % and used for haemagglutination. Parallel to the tests regarding inhibition of adherence the humane nasopharyngeal epithelium cells were pretreated with decreasing concentrations of glycolipid, incubated for 2 hours at 37°C, washed and used for testing of adherence.

| Compound | activity at 1000 µg/mL ([1]; Streptococcus pneumoniae) [%] | activity at 5000 µg/mL ([1]; Streptococcus pneumoniae) [%] | activity at 10000 µg/mL ([1]; Streptococcus pneumoniae) [%] | activity at 100 µg/mL ([1]; Streptococcus pneumoniae) [%] | further results |
| --- | --- | --- | --- | --- | --- |
| CC(=O)N[C@H]1C(O)O[C@H](CO)[C@@H](O[C@@H]2O[C@H](CO)[C@H](O)[C@H](O)[C@H]2O)[C@@H]1O (stereo partly shown) [Substance 10, N-acetyllactose amine, reference compound] | 95 | 144 | 127 |  | inhibition of adherence (result in words) [1]: inactive |
| N-acetylneuraminosyl neolactotetraosyl ceramide [Substance 3, reference compound] |  |  |  |  | Inhibition of adherence % of control Average [1]: 100 % of control; inhibition of adherence (result in words) [1]: no effect; Increase of adherence % of control Average [2]: 94 % of control; effect of coating of pharyngeal epithelium cells on adherence (result in words) [2]: no effect |
| globotetraosylceramide [Substance 4, reference compound] |  |  |  |  | Increase of adherence % of control Average [2]: 100 % of control |
| CO[C@@H]1O[C@H](CO)[C@@H](O[C@@H]2O[C@H](CO)[C@H](O)[C@H](O[C@@H]3O[C@H](CO)[C@@H](O[C@@H]4O[C@H](CO)[C@H](O)[C@H](O)[C@H]4O)[C@H](O)[C@H]3NC(C)=O)[C@H]2O)[C@H](O)[C@H]1O [Substance 16, Methyl 4-0-{3-0-[2-acetamido-2-deoxy-4-0-(D-galactopy-ranasyl)-β-D-glucopyranosyl]-β-D-galactopyranosyl}-β-D-glucopyranoside] | 11 | 1 | 4 | 104 |  |
| CC(=O)N[C@H]1[C@H](O[C@H]2[C@@H](O)[C@@H](CO)O[C@@H](O[C@H]3[C@H](O)[C@@H](O)C(O)O[C@@H]3CO)[C@@H]2O)O[C@H](CO)[C@@H](O[C@@H]2O[C@H](CO)[C@H](O)[C@H](O)[C@H]2O)[C@@H]1O (stereo partly shown) [Substance 5, Neolactotetraose] | 28 | 0 | 1 | 52 | IC50 ([1]; Streptococcus pneumoniae): ~400 µg/mL (≈ 565 µM) |
| globotetraosylceramide |  |  |  |  | effect of coating of pharyngeal epithelium cells on adherence (result in words) [2]: no effect |
| CO[C@H]1O[C@H](CO)[C@@H](O[C@@H]2O[C@H](CO)[C@H](O)[C@H](O)[C@H]2O)[C@H](O)[C@H]1NC(C)=O [Substance 8, Methyl 2-acetamido-2-deoxy-4-O-(β-D-galactopyranosvl)-α--D-glycopyranoside] | 96 | 98 | 129 |  | inhibition of adherence (result in words) [1]: inactive |
| CO[C@@H]1O[C@H](CO)[C@H](O)[C@H](O[C@@H]2O[C@H](CO)[C@@H](O)[C@H](O)[C@H]2NC(C)=O)[C@H]1O [Substance 12, Methyl 3-0-(2-acetamido-2-deoxy-β-D-glycopyranosyl)-β-D--galactopyranoside] | 105 | 15 | 4 | 66 |  |
| CC(=O)N[C@H]1[C@H](O[C@H]2[C@@H](O)[C@@H](CO)O[C@@H](O[C@H]3[C@H](O)[C@@H](O)C(O)O[C@@H]3CO)[C@@H]2O)O[C@H](CO)[C@@H](O)[C@@H]1O[C@@H]1O[C@H](CO)[C@H](O)[C@H](O)[C@H]1O (stereo partly shown) [Substance 6, Lactotetraose] | 25 | 4 |  | 68 | IC50 ([1]; Streptococcus pneumoniae): ~400 µg/mL (≈ 565 µM) |
| CCO[C@@H]1O[C@H](CO)[C@@H](O[C@@H]2O[C@H](CO)[C@H](O)[C@H](O)[C@H]2O)[C@H](O)[C@H]1NC(C)=O [Substance 13, Galβ1→4GlcNAcβ1-O-Et] | 67 | 38 | 31 |  |  |
| CO[C@@H]1O[C@H](CO)[C@H](O)[C@H](O[C@@H]2O[C@H](CO)[C@@H](O[C@@H]3O[C@H](CO)[C@H](O)[C@H](O)[C@H]3O)[C@H](O)[C@H]2NC(C)=O)[C@H]1O [Substance 15, Methyl 3-0-2-acetamido-2-deoxy-4-0-(β-D-galactopyranosyl)--β-D-glycopyranosyl-β-D-galactopyranoside] | 45 | 11 | 2 | 60 |  |
| CO[C@@H]1O[C@H](CO)[C@H](O[C@@H]2O[C@H](CO)[C@@H](O)[C@H](O)[C@H]2NC(C)=O)[C@H](O)[C@H]1O [Substance 11, Methyl 4-0-(2-acetamido-2-deoxy-β-D-glycopyranosyl)-β-D--galactopyranoside] | 72 | 73 | 75 | 65 | inhibition of adherence (result in words) [1]: inactive |
| neolactotetraosyl ceramide [Substance 2] |  |  |  |  | Inhibition of adherence % of control Average [1]: 59 % of control; adherence, % of the saline as a control ([1]; pretreatment of the pneumococci, at 200 µg/ml, 15 min): 59%; Increase of adherence % of control Average [2]: 190 % of control; effect of coating of pharyngeal epithelium cells on adherence (result in words) [2]: increased adherence |
| CCO[C@@H]1O[C@H](CO)[C@@H](O[C@@H]2O[C@H](CO)[C@H](O)[C@H](O)[C@H]2O)[C@H](O)[C@H]1O [Substance 14, Ethyl 4-0-β-D-galactopyranosyl-β-D-glycopyranoside] | 85 | 78 | 63 |  |  |
| CO[C@@H]1O[C@H](CO)[C@@H](O[C@@H]2O[C@H](CO)[C@H](O)[C@H](O)[C@H]2O)[C@H](O)[C@H]1NC(C)=O [Substance 9, Methyl 2-acetamido-2-deoxy-4-O-(β-D-galactopyranosyl)-β--D-glycopyranoside] | 96 | 45 | 29 |  | minimal effective concentration ([1]; Streptococcus pneumoniae, read-out: concentration at which adherence was inhibited): ~5000 µg/mL |
| Galβ1 → 3 GlcNAc-β1-O-Bz [Substance 17] |  |  |  |  | Adherence % of control Average ([1]; Conc. 0.1 mg/ml): 88 % of control; Adherence % of control Average ([1]; Conc. 1 mg/ml): 86 % of control; Adherence % of control Average ([1]; Conc. 5 mg/ml): 51 % of control; Adherence % of control Average ([1]; Conc. 10 mg/ml): 8 % of control |
